# From patent US11479546B2, “Antimalarial hexahydropyrimidine analogues” (UCB Biopharma SRL, priority 2018, dated 2022)
# System: Plasmodium falciparum 3D7
# Assay: P. falciparum 3D7 asexual blood stage assay, Assay Procedure Version 2 (SYBR green readout)
# Assay type: cell-based
# Conditions: Plasmodium falciparum, 3D7, Erythrocyte, 72 h, Version 2 of the assay procedure (asterisk *); 72 h incubation in infected erythrocytes; 50,000 nM to 15 nM
# Procedure: Asexual Blood Stage Assay
# The assay used to measure the effect of test compounds on a bloodstream stage of Plasmodium falciparum 3D7 strain employs SYBR green as the readout. This is a dye that binds to double stranded deoxyribonucleic acid (DNA) with a resulting increase in fluorescence, allowing detection of P. falciparum DNA in infected erythrocytes, and thereby providing a measure of parasite growth and propagation.
# P. falciparum Culture Maintenance
# Erythrocytes (A+blood) were prepared for both parasite culture and assay by washing 4 times with incomplete media (15.9 g RPMI 1640 (25 mM HEPES, L-glutamine), 1 g NaHCO3, 2 g glucose, 400 μL gentacin (500 mg/mL), 2 mL hypoxanthine solution (13.6 g/L in 0.1M NaOH pH 7.3) in 1 litre of media). The cells were centrifuged at 1800 g for 5 minutes, before decanting the supernatant and re-suspending in fresh incomplete media. On the final wash, the cells were re-suspended in complete media (incomplete media with 5 g/L AlbumaxII), and centrifuged at 1800 g for 3 minutes. This cell sediment was treated as 100% haematocrit.
# P. falciparum 3D7 was cultured in erythrocytes at 5% haematocrit in complete media at 37° C. (1% O2, 3% CO2, balance N2). Cultures were split on a weekly basis to achieve a 1% parasitaemia in erythrocites at 5% haematocrit in fresh media. Culture media is replaced by fresh media every other day (2 times during the week).
# [formula] where A=% inhibition at bottom; B=% inhibition at top; C=EC50; D=slope; x=inhibitor concentration; and y=% inhibition. […] Assay Procedure—Version 2
# On day 1, test compounds were added to assay plates using Echo dispensing technology ([…] and 20 points titration). 50 nL of each compound dilution was added to 50 μL of culture (5% haematocrit, 0.5% parasitaemia) and incubated for 72 h at 37° C. (1% O2, 3% CO2, balance N2). Final concentrations of test compounds ranged from 50,000 nM to 15 nM, in […].
# On day 4, 10 μL SYBR green (Invitrogen S7563 supplied as 10,000× concentrate in DMSO) pre-diluted to 3× concentrate with Lysis buffer (20 mM Tris pH 7.9, 5% EDTA, 0.16% w/v, 1.6% TX100 v/v) was added to the cultures and incubated in the dark, overnight, at room temperature.
# On day 5, fluorescent signal was measured using a BioTek plate reader (excitation 485 nm, emission 528 nm). All data were processed using IDBS ActivityBase. Raw data were converted into percent inhibition through linear regression by setting the high inhibition control (mefloquine) as 100% and the no inhibition control (DMSO) as 0%. Quality control criteria for passing plates were as follows: Z′>0.5, S:B>3, % CV(no inhibition control)<15. The formula used to calculate Z′ is:
# [formula] where μ denotes the mean; σ denotes the standard deviation; p denotes the positive control; and n denotes the negative control.
# All EC50 curve fitting was undertaken using the following bi-phasic two site dose response using XLfit model 300 (IDBS):
# [formula] where A=100 minus the top of the upper curve 1 and the bottom of lower curve; B=Hill slope; log(C)=IC50 concentration at lower site; log(D)=IC50 concentration at upper site; x=inhibitor concentration; and y=% inhibition.
row,Structure (SMILES),IC50 [nM]
1,"Cc1nn(-c2ccccc2)c(C)c1Nc1cccc([C@]2(C)CC(=O)N(C3CCOCC3)C(=N)N2)c1Cl [Example 186, (6S)-6-{2-Chloro-3-[(3,5-dimethyl-1-phenylpyrazol-4-yl)-amino]phenyl}-2-imino-6-methyl-3-(tetrahydropyran-4-yl)hexahydropyrimidin-4-one]",456
2,"CC(=O)N1CCc2cc(Nc3cccc([C@]4(C)CC(=O)N(C5CCOCC5)C(=N)N4)c3Cl)ccc21 [Example 65, (6S)-6-{3-[(1-Acetylindolin-5-yl)amino]-2-chlorophenyl}-2-imino-6-methyl-3-(tetrahydro-pyran-4-yl)hexahydropyrimidin-4-one]",458
3,"C[C@@H]1C[C@H](N2C(=N)N[C@](C)(c3cccc(Nc4ccc(OCC(F)(F)F)nc4)c3Cl)CC2=O)CCO1 (relative stereo) [Example 201, (6S)-6-(2-Chloro-3-{[6-(2,2,2-trifluoroethoxy)pyridin-3-yl]-amino}phenyl)-2-imino-6-methyl-3-[(2R*,4R*)-2-methyl-tetrahydropyran-4-yl]-hexahydropyrimidin-4-one]",102
4,"C[C@@]1(c2cccc(Nc3ccn4nccc4c3)c2Cl)CC(=O)N(C2CCOCC2)C(=N)N1 [Example 91, (6S)-6-[2-Chloro-3-(pyrazolo-[1,5-a]pyridin-5-ylamino)-phenyl]-2-imino-6-methyl-3-(tetrahydropyran-4-yl)-hexahydropyrimidin-4-one]",896
5,"C[C@@]1(c2cccc(Nc3cnc(C(F)(F)F)nc3)c2Cl)CC(=O)N(C2CCOCC2)C(=N)N1 [Example 52, (6S)-6-(2-Chloro-3-{[2-(trifluoromethyl)pyrimidin-5-yl]amino}phenyl)-2-imino-6-methyl-3-(tetrahydropyran-4-yl)hexahydropyrimidin-4-one]",680
6,"Cc1ccc(Nc2cccc([C@]3(C)CC(=O)N(C4CCC(F)(F)CC4)C(=N)N3)c2Cl)cn1 [Example 139, (6S)-6-{2-Chloro-3-[(6-methyl-pyridin-3-yl)amino]phenyl}-3-(4,4-difluorocyclohexyl)-2-imino-6-methylhexahydro-pyrimidin-4-one]",132
7,"C[C@@]1(c2cccc(Nc3cccc(N4CCCC4=O)c3)c2Cl)CC(=O)N(C2CCOCC2)C(=N)N1 [Example 79, (6S)-6-{2-Chloro-3-[3-(2-oxo-pyrrolidin-1-yl)anilino]phenyl}-2-imino-6-methyl-3-(tetrahydro-pyran-4-yl)hexahydropyrimidin-4-one]",401
8,"C[C@@H]1C[C@@H](N2C(=N)N[C@](C)(c3cccc(Nc4ccc(OC(F)F)nc4)c3Cl)CC2=O)CCO1 (single isomer, unassigned; peak 1) [Example 191, (6S)-6-(2-Chloro-3-{[6-(difluoromethoxy)pyridin-3-yl]-amino}phenyl)-2-imino-6-methyl-3-[(2R*,4S*)-2-methyl-tetrahydropyran-4-yl]-hexahydropyrimidin-4-one (Peak 1)]",363
9,"C[C@@]1(c2cccc(Nc3ccc(C4CC4)nc3)c2Cl)CC(=O)N(C2CCOCC2)C(=N)N1 [Example 99, (6S)-6-{2-Chloro-3-[(6-cyclo-propylpyridin-3-yl)amino]-phenyl}-2-imino-6-methyl-3-(tetrahydropyran-4-yl)-hexahydropyrimidin-4-one]",66
10,"Cc1ccc(Nc2cccc([C@]3(C)CC(=O)N(C4CCOCC4)C(=N)N3)c2Cl)c(OC(F)F)n1 [Example 94, (6S)-6-(2-Chloro-3-{[2-(difluoromethoxy)-6-methyl-pyridin-3-yl]amino}phenyl)-2-imino-6-methyl-3-(tetrahydro-pyran-4-yl)hexahydropyrimidin-4-one]",34
11,"Cc1ncc(Nc2cccc([C@]3(C)CC(=O)N(C4CCOCC4)C(=N)N3)c2Cl)cc1C(F)(F)F [Example 93, (6S)-6-(2-Chloro-3-{[6-methyl-5-(trifluoromethyl)pyridin-3-yl]-amino}phenyl)-2-imino-6-methyl-3-(tetrahydropyran-4-yl)hexahydropyrimidin-4-one]",70
12,"C[C@@]1(c2cccc(Nc3ncccc3OC(F)F)c2Cl)CC(=O)N(C2CCOCC2)C(=N)N1 [Example 102, (6S)-6-(2-Chloro-3-{[3-(difluoromethoxy)pyridin-2-yl]-amino}phenyl)-2-imino-6-methyl-3-(tetrahydropyran-4-yl)hexahydropyrimidin-4-one]",193
13,"C[C@@]1(c2cccc(Nc3ccc(OCC(F)(F)F)nc3)c2Cl)CC(=O)N(C2CCOCC2)C(=N)N1 [Example 112, (6S)-6-(2-Chloro-3-{[6-(2,2,2-trifluoroethoxy)pyridin-3-yl]-amino}phenyl)-2-imino-6-methyl-3-(tetrahydropyran-4-yl)hexahydropyrimidin-4-one]",642
14,"C[C@@]1(c2cccc(Nc3ccc(C(F)(F)F)cc3)c2Cl)CC(=O)N([C@H]2C[C@@](C)(O)C2)C(=N)N1 [Example 174, (6S)-6-{2-Chloro-3-[4-(trifluoromethyl)anilino]-phenyl}-3-(3-hydroxy-3-methyl-cyclobutyl)-2-imino-6-methyl-hexahydropyrimidin-4-one]",764
15,"C[C@@]1(c2cccc(Nc3ccc(C(F)(F)F)nc3)c2Cl)CC(=O)N([C@H]2C[C@@](C)(O)C2)C(=N)N1 [Example 124, (6S)-6-(2-Chloro-3-{[6-(trifluoromethyl)pyridin-3-yl]-amino}phenyl)-3-(3-hydroxy-3-methylcyclobutyl)-2-imino-6-methylhexahydropyrimidin-4-one]",509
16,"C[C@@]1(c2cccc(Nc3ccccc3OC(F)(F)F)c2Cl)CC(=O)N(C2CCOCC2)C(=N)N1 [Example 53, (6S)-6-{2-Chloro-3-[2-(trifluoromethoxy)anilino]-phenyl}-2-imino-6-methyl-3-(tetrahydropyran-4-yl)-hexahydropyrimidin-4-one]",212
17,"C[C@@]1(c2cccc(Nc3cccnc3OC(F)F)c2Cl)CC(=O)N(C2CCOCC2)C(=N)N1 [Example 97, (6S)-6-(2-Chloro-3-{[2-(difluoromethoxy)pyridin-3-yl]-amino}phenyl)-2-imino-6-methyl-3-(tetrahydropyran-4-yl)hexahydropyrimidin-4-one]",216
18,"C[C@@]1(c2cccc(Nc3ccc(C(F)F)nc3)c2Cl)CC(=O)N(C2CCOCC2)C(=N)N1 [Example 81, (6S)-6-(2-Chloro-3-{[6-(difluoromethyl)pyridin-3-yl]-amino}phenyl)-2-imino-6-methyl-3-tetrahydropyran-4-yl-hexahydropyrimidin-4-one]",425
19,"COc1ncc(Nc2cccc([C@]3(C)CC(=O)N(C4CCOCC4)C(=N)N3)c2Cl)cc1F [Example 49, (6S)-6-{2-Chloro-3-[(5-fluoro-6-methoxypyridin-3-yl)amino]-phenyl}-2-imino-6-methyl-3-(tetrahydropyran-4-yl)-hexahydropyrimidin-4-one]",468
20,"C[C@@]1(c2cccc(Nc3ccc(F)cc3C#N)c2Cl)CC(=O)N(C2CCOCC2)C(=N)N1 [Example 82, 2-{2-Chloro-3-[(4S)-2-imino-4-methyl-6-oxo-1-(tetrahydro-pyran-4-yl)hexahydropyrimidin-4-yl]anilino}-5-fluorobenzo-nitrile]",137

# Same assay, conditions: Version 2 of the assay procedure (asterisk *); 72 h incubation in infected erythrocytes; 50,000 nM to 15 nM
row,Structure (SMILES),IC50 [nM]
1,"CC1(C)CC(N2C(=N)N[C@](C)(c3cccc(Nc4ccc(OC(F)F)nc4)c3Cl)CC2=O)CCO1 (single isomer, unassigned) [Example 144, (6S)-6-(2-Chloro-3-{[6-(difluoromethoxy)pyridin-3-yl]-amino}phenyl)-3-[(4S*)-2,2-dimethyltetrahydropyran-4-yl]-2-imino-6-methylhexahydro-pyrimidin-4-one]",493
2,"CC1(C)CC(N2C(=N)N[C@](C)(c3cccc(Nc4ccc(OC(F)F)nc4)c3Cl)CC2=O)CCO1 (single isomer, unassigned) [Example 143, (6S)-6-(2-Chloro-3-{[6-(difluoromethoxy)pyridin-3-yl]-amino}phenyl)-3-[(4R*)-2,2-dimethyltetrahydropyran-4-yl]-2-imino-6-methylhexahydro-pyrimidin-4-one]",996
